Data published in patent US4327097A, “Novel penicillins” (Toyama Chemical Co., Ltd., priority 1974, dated 1982).
Converted amounts (≈) assume the structure as drawn. Where a name gives a salt, the structure may show the parent alone.

What was measured:
Type in all cases: cell-based
[1] = test system: Escherichia coli NIHJ; experiment: MIC, plate method, standard strains; conditions: unit assumed; for MIC Esche--richin coil NIHJ: Table 3, standard strain
Protocol: (§1) The minimum inhibitory concentration (MIC) was determined by the plate method disclosed in "Chemotherapy" (Japan), Vol. 16, (1968), pages 98-99. The culture medium used was a Heart infusion agar (pH 7.4). The number of the cells per plate used in the inoculum was 10^4 (10^6 cells/ml).

[2] = test system: Klebsiella pneumoniae; experiment: MIC, plate method, standard strains; conditions: unit assumed
Protocol: as §1

[3] = test system: Proteus vulgaris 3027; experiment: MIC, plate method, standard strains; conditions: unit assumed
Protocol: as §1

[4] = test system: Staphylococcus aureus 209p; experiment: MIC, plate method, standard strains; conditions: Table 3, standard strain, Heart infusion agar pH 7.4; unit assumed
Protocol: as §1

[5] = test system: Staphylococcus aureus; experiment: MIC against clinical isolates; conditions: Table 5-1, clinical isolate; unit assumed
[6] = test system: Escherichia coli; experiment: MIC against clinical isolates; conditions: unit assumed
[7] = test system: Shigella flexneri; experiment: MIC against clinical isolates; conditions: Table 5-5, clinical isolate; unit assumed
Protocol: as §1
(§2) MIC was determined in the same manner as in the preceding paragraph (1).

[8] = test system: Shigella sonnei; experiment: MIC against clinical isolates; conditions: Table 5-5, clinical isolate; unit assumed
Protocol: as §1, §2

[9] = test system: Pseudomonas aeruginosa I.F.O.; experiment: MIC, plate method, standard strains; conditions: Table 3, standard strain; unit assumed
Protocol: as §1

[10] = test system: Pseudomonas aeruginosa; experiment: MIC against clinical isolates; conditions: unit assumed
[11] = test system: Klebsiella pneumoniae; experiment: MIC against clinical isolates; conditions: Table 6-4, clinical isolate; unit assumed

`CCCCN1CCN(C(=O)N[C@@H](C(=O)N[C@@H]2C(=O)N3[C@@H]2SC(C)(C)[C@@H]3C(=O)O)c2ccccc2)C(=O)C1` [Compound 14] gave an MIC Esche--richin coil NIHJ [1] of under 1.57 µg/mL, an MIC Klebsiella pneumoniae ([2]; Table 3, standard strain) of 3.13 µg/mL (≈ 5.89 µM) and an MIC Proteus vulgaris 3027 ([3]; Table 3, standard strain) of under 1.57 µg/mL. The MIC Staphylococcus aureus 209p [4] was under 1.57 µg/mL, the MIC Staphylococcus aureus F-2 [5] was 1.57 µg/mL (≈ 2.95 µM) and the MIC Staphylococcus aureus F-4 [5] was 6.25 µg/mL (≈ 11.8 µM). It also gave an MIC Staphylococcus aureus MS 8588 [5] of 3.13 µg/mL (≈ 5.89 µM), an MIC Staphylococcus aureus MS 8596 [5] of 3.13 µg/mL (≈ 5.89 µM) and an MIC Staphylococcus aureus MS 8684 [5] of 3.13 µg/mL (≈ 5.89 µM). The MIC Staphylococcus aureus MS 8713 [5] was 3.13 µg/mL (≈ 5.89 µM), the MIC Escherichia coli GN 3435 ([6]; Table 5-2, clinical isolate) was 6.25 µg/mL (≈ 11.8 µM) and the MIC Escherichia coli GN 3452 ([6]; Table 5-2, clinical isolate) was 6.25 µg/mL (≈ 11.8 µM). For the same compound, the MIC Escherichia coli GN 3481 ([6]; Table 5-2, clinical isolate) was 6.25 µg/mL (≈ 11.8 µM), the MIC Escherichia coli K-1 ([6]; Table 5-2, clinical isolate) was 3.13 µg/mL (≈ 5.89 µM) and the MIC Escherichia coli K-4 ([6]; Table 5-2, clinical isolate) was 6.25 µg/mL (≈ 11.8 µM). For the same compound, the MIC Shigella flexneri JS 11215 [7] was 25 µg/mL (≈ 47 µM), the MIC Shigella flexneri JS 11839 [7] was 3.13 µg/mL (≈ 5.89 µM) and the MIC Shigella sonnei JS 11232 [8] was 25 µg/mL (≈ 47 µM). For the same compound, the MIC Shigella sonnei JS 11755 [8] was 6.25 µg/mL (≈ 11.8 µM).

With `CC1(C)S[C@@H]2[C@H](NC(=O)[C@H](NC(=O)N3CCN(C(=O)Nc4ccccc4)C(=O)C3)c3ccccc3)C(=O)N2[C@H]1C(=O)O` [Compound 33] the MIC Esche--richin coil NIHJ [1] was under 1.57 µg/mL, the MIC Pseudomonas aeruginosa I.F.C [9] was 50 µg/mL (≈ 84.1 µM) and the MIC Staphylococcus aureus 209p [4] was under 1.57 µg/mL.

With `CC1(C)S[C@@H]2[C@H](NC(=O)[C@H](NC(=O)N3CC(=O)N(C(=O)c4ccccc4)CC3=O)c3ccccc3)C(=O)N2[C@H]1C(=O)O` [Compound 34] the MIC Klebsiella pneumoniae ([2]; Table 3, standard strain) was 50 µg/mL (≈ 84.2 µM), the MIC Proteus vulgaris 3027 ([3]; Table 3, standard strain) was 50 µg/mL (≈ 84.2 µM) and the MIC Pseudomonas aeruginosa I.F.C [9] was 100 µg/mL (≈ 168 µM).

In the case of `CC1(C)S[C@@H]2[C@H](NC(=O)[C@H](NC(=O)N3CC(=O)N(Cc4ccccc4)CC3=O)c3ccccc3)C(=O)N2[C@H]1C(=O)O` [Compound 35], the MIC Pseudomonas aeruginosa I.F.C [9] is reported as 100 µg/mL (≈ 173 µM).

For `CCN1CCN(C(=O)NC(C(=O)NC2C(=O)N3C(C(=O)O)=C(COC(C)=O)CSC23)c2ccccc2)C(=O)C1=O` (centres unmarked) [Compound No. 61], the MIC Pseudomonas aeruginosa GN ([10]; Table 6-3, clinical isolate, strain number not given) was 25 µg/mL (≈ 43.6 µM) and the MIC Pseudomonas aeruginosa GN4 ([10]; Table 6-3, clinical isolate) was 12.5 µg/mL (≈ 21.8 µM).

`CN1CCN(C(=O)N[C@@H](C(=O)N[C@@H]2C(=O)N3C(C(=O)[O-])=C(C[n+]4ccccc4)CS[C@H]23)c2ccccc2)C(=O)C1=O` [Compound No. 68] showed an MIC Escherichia coli NIHJ ([1]; Table 4, standard strain) of under 0.79 µg/mL, an MIC Klebsiella pneumoniae ([2]; Table 4, standard strain) of under 0.79 µg/mL and an MIC Pseudomonas aeruginosa GN4 ([10]; Table 6-3, clinical isolate) of 12.5 µg/mL (≈ 21.6 µM). It also gave an MIC Pseudomonas aeruginosa GN 1035 ([10]; Table 6-3, clinical isolate) of 50 µg/mL (≈ 86.4 µM) and an MIC Pseudomonas aeruginosa GN 2565 ([10]; Table 6-3, clinical isolate) of 50 µg/mL (≈ 86.4 µM).

`CC(=O)N1CCN(C(=O)N[C@@H](C(=O)N[C@@H]2C(=O)N3[C@@H]2SC(C)(C)[C@@H]3C(=O)O)c2ccccc2)C(=O)C1` [Example 1, sodium salt of 6-[D(-)-α-(4-acetyl-2-oxo-1-piperazinocarbonylamino)phenylacetamido]penicillanic acid] was tested, and the MIC Staphylococcus aureus F-1 [5] was 12.5 µg/mL, the MIC Staphylococcus aureus F-2 [5] was 3.13 µg/mL and the MIC Staphylococcus aureus F-4 [5] was 6.25 µg/mL. The MIC Staphylococcus aureus MS 8588 [5] was 6.25 µg/mL, the MIC Staphylococcus aureus MS 8596 [5] was 3.13 µg/mL and the MIC Staphylococcus aureus MS 8684 [5] was 3.13 µg/mL. For the same compound, the MIC Staphylococcus aureus MS 8713 [5] was 3.13 µg/mL, the MIC Escherichia coli GN 3435 ([6]; Table 5-2, clinical isolate) was 6.25 µg/mL and the MIC Escherichia coli GN 3452 ([6]; Table 5-2, clinical isolate) was 12.5 µg/mL. The MIC Escherichia coli GN 3481 ([6]; Table 5-2, clinical isolate) was 12.5 µg/mL, the MIC Escherichia coli K-1 ([6]; Table 5-2, clinical isolate) was 6.25 µg/mL and the MIC Escherichia coli K-4 ([6]; Table 5-2, clinical isolate) was 12.5 µg/mL. The MIC Shigella flexneri JS 11215 [7] was 100 µg/mL, the MIC Shigella flexneri JS 11839 [7] was 3.13 µg/mL and the MIC Shigella sonnei JS 11232 [8] was over 200 µg/mL. It also gave an MIC Shigella sonnei JS 11755 [8] of 12.5 µg/mL.

`Cc1nnc(SCC2=C(C(=O)O)N3C(=O)[C@@H](NC(=O)Cn4cnnn4)[C@H]3SC2)s1` [Sodium Cephazolin, reference compound] was tested, and the MIC Escherichia coli GN 3435 ([6]; Table 6-2, clinical isolate) was 1.56 µg/mL, the MIC Escherichia coli GN 3452 ([6]; Table 6-2, clinical isolate) was 1.56 µg/mL and the MIC Escherichia coli GN 3481 ([6]; Table 6-2, clinical isolate) was 1.56 µg/mL. For the same compound, the MIC Escherichia coli K-1 ([6]; Table 6-2, clinical isolate) was 1.56 µg/mL, the MIC Escherichia coli K-2 ([6]; Table 6-2, clinical isolate) was 1.56 µg/mL and the MIC Escherichia coli K-4 ([6]; Table 6-2, clinical isolate) was 3.13 µg/mL. It also gave an MIC Pseudomonas aeruginosa GN4 ([10]; Table 6-3, clinical isolate) of over 200 µg/mL, an MIC Pseudomonas aeruginosa S-4 ([10]; Table 6-4, clinical isolate) of over 200 µg/mL and an MIC Klebsiella pneumoniae GN 917 [11] of 1.56 µg/mL. It also gave an MIC Klebsiella pneumoniae GN 4081 [11] of 3.13 µg/mL and an MIC Klebsiella pneumoniae GN 4117 [11] of 3.13 µg/mL.

`CN1CCN(C(=O)NC(C(=O)N[C@@H]2C(=O)N3[C@@H]2SC(C)(C)[C@@H]3C(=O)O)c2cccs2)C(=O)C1=O` (some centres unmarked) [compound 58] was tested, and the MIC Esche--richin coil NIHJ [1] was under 1.57 µg/mL and the MIC Staphylococcus aureus 209p [4] was under 1.57 µg/mL.

`CC1(C)S[C@@H]2[C@H](NC(=O)[C@H](N)c3ccccc3)C(=O)N2[C@H]1C(=O)O` [drawing 185, reference compound] showed an MIC Esche--richin coil NIHJ [1] of under 1.57 µg/mL and an MIC Staphylococcus aureus 209p [4] of under 1.57 µg/mL.

`CC1(C)S[C@@H]2[C@H](NC(=O)C(c3ccccc3)S(=O)(=O)O)C(=O)N2[C@H]1C(=O)O` (some centres unmarked) [drawing 187, reference compound] was tested, and the MIC Esche--richin coil NIHJ [1] was 1.57 µg/mL (≈ 3.79 µM).

Work on `CC(=O)N1CCN(C(=O)N[C@@H](C(=O)N[C@@H]2C(=O)N3[C@@H]2SC(C)(C)[C@@H]3C(=O)O)c2ccccc2)C(=O)C1` [drawing 188] yielded an MIC Klebsiella pneumoniae ([2]; Table 3, standard strain) of 12.5 µg/mL (≈ 24.2 µM) and an MIC Proteus vulgaris 3027 ([3]; Table 3, standard strain) of 3.13 µg/mL (≈ 6.05 µM).

`CC(=O)OCC1=C(C(=O)O)N2C(=O)[C@@H](NC(=O)[C@H](N)c3ccccc3)[C@H]2SC1` [drawing 247, reference compound] gave an MIC Klebsiella pneumoniae ([2]; Table 4, standard strain) of under 1.57 µg/mL and an MIC Proteus vulgaris 3027 ([3]; Table 4, standard strain) of 100 µg/mL (≈ 247 µM).

With `Cc1nnc(SCC2=C(C(=O)O)N3C(=O)[C@@H](NC(=O)Cn4cnnn4)[C@H]3SC2)s1` [drawing 249, reference compound] the MIC Klebsiella pneumoniae ([2]; Table 4, standard strain) was 1.57 µg/mL (≈ 3.45 µM) and the MIC Proteus vulgaris 3027 ([3]; Table 4, standard strain) was 200 µg/mL (≈ 440 µM).
